One test deals with T1, GPR3 (Homo sapiens, UniProt P46089).
T1 construct: expressed in transfected cells; host or cells: CHO cells
In words: GPR3 antagonist functional cAMP assay (LANCE Ultra cAMP TR-FRET, CHO cells stably expressing GPR3). In kind it is cell-based. In a few lines: (§1)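 Cells in Krebs-Ringer buffer with 0.1% BSA and 150 μM Ro 20-1724 PDE inhibitor were exposed to compounds for 45 min at 37 °C (0.1% DMSO). cAMP was read by TR-FRET at 665 nm; IC50s came from 4-parameter fits normalized to DMSO and reference compound.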
On the technique in general: Cyclic AMP is a second messenger, typically raised through Gs and lowered through Gi signalling.

A further test deals with T2, GPR6 (Homo sapiens, UniProt P46095).
T2 construct: expressed in transfected cells; host or cells: CHO cells
Briefly: GPR6 antagonist functional cAMP assay (LANCE Ultra cAMP TR-FRET, CHO cells stably expressing GPR6). In kind it is cell-based. A digest of the protocol:
as §1

The mark [1] stands for this setting: CHO cells stably expressing GPR3, cAMP assay (Example 24).
Where [2] appears, read: CHO cells stably expressing GPR6, cAMP assay (Example 24).
Where [3] appears, read: CHO cells stably expressing GPR3, cAMP assay.
The mark [4] stands for this setting: CHO cells stably expressing GPR6, cAMP assay.
[5] abbreviates: procedure as described in Example 24.

As a reminder, the IC50 is the concentration that gives 50% inhibition.

T1 sequence (P46089 whole entry, species assumed): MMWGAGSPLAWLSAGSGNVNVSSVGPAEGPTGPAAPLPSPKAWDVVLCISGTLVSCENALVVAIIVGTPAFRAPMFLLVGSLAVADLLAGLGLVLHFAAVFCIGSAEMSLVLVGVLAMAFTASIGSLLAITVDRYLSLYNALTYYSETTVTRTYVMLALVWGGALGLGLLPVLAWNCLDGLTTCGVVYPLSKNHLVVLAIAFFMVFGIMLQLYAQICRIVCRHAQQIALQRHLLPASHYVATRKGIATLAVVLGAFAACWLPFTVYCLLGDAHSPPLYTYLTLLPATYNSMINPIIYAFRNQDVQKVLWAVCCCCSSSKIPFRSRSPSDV
T2 sequence (P46095 whole entry): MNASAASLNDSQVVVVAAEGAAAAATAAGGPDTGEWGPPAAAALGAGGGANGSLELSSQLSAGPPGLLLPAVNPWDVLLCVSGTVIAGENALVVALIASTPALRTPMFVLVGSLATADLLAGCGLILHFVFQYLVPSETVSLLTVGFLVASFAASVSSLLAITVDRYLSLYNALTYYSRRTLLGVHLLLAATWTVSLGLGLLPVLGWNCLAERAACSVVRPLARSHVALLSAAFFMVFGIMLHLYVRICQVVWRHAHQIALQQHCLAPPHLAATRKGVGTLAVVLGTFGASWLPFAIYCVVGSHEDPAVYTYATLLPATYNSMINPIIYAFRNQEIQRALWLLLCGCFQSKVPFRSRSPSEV

`CC(C)(O)[C@](C)(O)c1cc2nc(-c3cnn(C4CC4)c3)c(N3CCN(Cc4ccccc4F)CC3)nc2cn1` (single isomer, unassigned) [Compound 775]: the figures for the IC50 on GPR3 (procedure of Example 24) and at GPR6 (procedure of Example 24) were 1000 to 30000 nM and 100 to 1000 nM, respectively.

In the case of `COC(=O)[C@H]1C[C@@H]1c1cc2nc(N3CCC(Oc4ccc(F)cc4F)CC3)c(-c3cnn(C)c3)nc2cn1` (single isomer, unassigned) [Compound 733], the IC50 against GPR3 (procedure of Example 24) was 1000 to 30000 nM; at GPR6 (procedure of Example 24), 100 to 1000 nM.

For the molecule `CC(=O)N1CCc2nc(N3CCC(Oc4ccc(F)cc4F)CC3)c(-c3cncc(Cl)c3)nc2C1` [Compound 136, 1-[3-(5-chloropyridin-3-yl)-2-[4-(2,4-difluorophenoxy)piperidin-1-yl]-5H,6H,7H,8H-pyrido[3,4-b]pyrazin-6-yl]ethan-1-one], the IC50 was 1000 to 30000 nM against GPR3 (setting [1]) and 100 to 1000 nM against GPR6 (setting [2]).

Consider `CC(C)(O)[C@H](O)c1cc2nc(N3CCN(Cc4ccccc4F)CC3)c(-c3cnn(CF)c3)nc2cn1` (single isomer, unassigned) [Compound 648], for which the values for the IC50 against GPR3 (procedure of Example 24) and at GPR6 (procedure of Example 24) were 1000 to 30000 nM and 100 to 1000 nM, respectively.

As for `CC(C)(O)[C@@](C)(O)c1cc2nc(N3CCN(Cc4ccccc4F)CC3)c(-c3cnn(CF)c3)nc2cn1` (single isomer, unassigned) [Compound 676], the IC50 lay within 1000 to 30000 nM at GPR3 (procedure of Example 24) and 100 to 1000 nM against GPR6 (procedure of Example 24).

For `COCCn1cc(-c2nc3c(nc2N2CCC(Oc4ccc(F)cc4F)CC2)CCN(C(C)=O)C3)cn1` [Compound 74, 1-{2-[4-(2,4-difluorophenoxy)piperidin-1-yl]-3-[1-(2-methoxyethyl)-1H-pyrazol-4-yl]-5H,6H,7H,8H-pyrido[3,4-b]pyrazin-6-yl}ethan-1-one], the figures for the IC50 on GPR3 (setting [1]) and against GPR6 (setting [2]) were 1000 to 30000 nM and 100 to 1000 nM, respectively.

As to `CC(=O)N1CCc2nc(N3CCC(Oc4ccc(F)cc4)CC3)c(-c3cnn(C)c3)nc2C1` [Compound 421, 1-{2-[4-(4-fluorophenoxy)piperidin-1-yl]-3-(1-methyl-1H-pyrazol-4-yl)-5H,6H,7H,8H-pyrido[3,4-b]pyrazin-6-yl}ethan-1-one], the IC50 at GPR3 (setting [1]) and against GPR6 (setting [2]) was 1000 to 30000 nM in each case.

Consider `CC(C)(O)C(O)c1cncc2nc(-c3cnn(C(F)F)c3)c(N3CCN(Cc4ccc(F)cc4F)CC3)nc12` (stereo not drawn) [Compound 679, 1-{3-[1-(difluoromethyl)-4-pyrazolyl]-2-{4-[(2,4-difluorophenyl)methyl]-1-piperazinyl}-1,4,6-triaza-8-naphthyl}-2-methyl-1,2-propanediol], for which the IC50 against GPR3 (procedure of Example 24) and at GPR6 (procedure of Example 24) was 1000 to 30000 nM in each case.

With `CC(=O)N1CCc2nc(N3CCN(Cc4ccn[nH]4)CC3)c(-c3cnn(C)c3)nc2C1` [Compound 524, 1-[3-(1-methyl-4-pyrazolyl)-2-{4-[(5-pyrazolyl)methyl]-1-piperazinyl}-5,6,7,8-tetrahydro-1,4,6-triaza-6-naphthyl]-1-ethanone], the IC50 on GPR3 (setting [3]) and on GPR6 (setting [4]) was at least 30000 nM throughout.

Regarding `CC(=O)N1Cc2nc(-c3cnn(C)c3)c(N3CCC(Oc4ccc(F)cc4F)CC3)nc2C(C)C1` (stereo not drawn) [Compound 540, 1-{2-[4-(2,4-difluorophenoxy)-1-piperidyl]-8-methyl-3-(1-methyl-4-pyrazolyl)-5,6,7,8-tetrahydro-1,4,6-triaza-6-naphthyl}-1-ethanone], the IC50 against GPR3 (setting [3]) was 1000 to 30000 nM; on GPR6 (setting [4]), under 100 nM.

Consider `O=C(CN1CCOCC1)N1CCc2nc(N3CCC(Oc4ccc(F)cc4F)CC3)c(-c3cnn(C4CCCCO4)c3)nc2C1` (stereo not drawn) [Compound 202, 1-{2-[4-(2,4-difluorophenoxy)piperidin-1-yl]-3-[1-(oxan-2-yl)-1H-pyrazol-4-yl]-5H,6H,7H,8H-pyrido[3,4-b]pyrazin-6-yl}-2-(morpholin-4-yl)ethan-1-one], for which the IC50 on GPR3 (setting [1]) and against GPR6 (setting [2]) was 1000 to 30000 nM each time.

As for `CCn1cc(-c2nc3c(nc2N2CCC(Oc4ccc(F)cc4F)CC2)CCN(C(=O)OC)C3)cn1` [Compound 273, methyl 2-[4-(2,4-difluorophenoxy)piperidin-1-yl]-3-(1-ethyl-1H-pyrazol-4-yl)-5H,6H,7H,8H-pyrido[3,4-b]pyrazine-6-carboxylate], the IC50 against GPR3 (procedure of Example 24) was 1000 to 30000 nM; at GPR6 (procedure of Example 24), under 100 nM.

On to `CC(C)(O)[C@](C)(O)c1cc2nc(N3CCC(Oc4ccc(F)cc4F)CC3)c(-c3cnn(C(F)F)c3)nc2cn1` (single isomer, unassigned) [Compound 655], for which the results for the IC50 against GPR3 (procedure of Example 24) and on GPR6 (procedure of Example 24) were 1000 to 30000 nM and 100 to 1000 nM, respectively.

Turning to `CC(=O)N1CCc2nc(N3CCC(Oc4cccc(F)c4)C3)c(-c3cnn(C)c3)nc2C1` (stereo not drawn) [Compound 383, 1-{2-[3-(3-fluorophenoxy)pyrrolidin-1-yl]-3-(1-methyl-1H-pyrazol-4-yl)-5H,6H,7H,8H-pyrido[3,4-b]pyrazin-6-yl}ethan-1-one], the IC50 at GPR3 (setting [1]) and against GPR6 (setting [2]) was 1000 to 30000 nM throughout.

Regarding `COC[C@@](C)(O)c1cc2nc(N3CCC(Oc4ccc(F)cc4F)CC3)c(-c3cnn(C)c3)nc2cn1` (single isomer, unassigned) [Compound 615], the figures for the IC50 at GPR3 (procedure of Example 24) and at GPR6 (procedure of Example 24) were 1000 to 30000 nM and 100 to 1000 nM, respectively.

For the molecule `COc1cncc(-c2nc3c(nc2N2CCC(Oc4ccc(F)cc4F)CC2)CCN(C(C)=O)C3)c1` [Compound 38, 1-{2-[4-(2,4-difluorophenoxy)piperidin-1-yl]-3-(5-methoxypyridin-3-yl)-5H,6H,7H,8H-pyrido[3,4-b]pyrazin-6-yl}ethan-1-one], the values for the IC50 on GPR3 (setting [5]) and on GPR6 (setting [5]) were 1000 to 30000 nM and 100 to 1000 nM, respectively.

On to `CC(=O)N1CCc2nc(N3CCN(Cc4cccc(F)c4F)CC3)c(-c3cnn(C)c3)nc2C1` [Compound 320, 1-(2-{4-[(2,3-difluorophenyl)methyl]piperazin-1-yl}-3-(1-methyl-1H-pyrazol-4-yl)-5H,6H,7H,8H-pyrido[3,4-b]pyrazin-6-yl)ethan-1-one], for which the IC50 at GPR3 (procedure of Example 24) and against GPR6 (procedure of Example 24) was 1000 to 30000 nM each time.

As to `O=S(=O)(C1COC1)N1CCc2nc(N3CCC(Oc4ccc(F)cc4F)CC3)c(-c3cnn(C4CCCCO4)c3)nc2C1` (stereo not drawn) [Compound 151, 4-(2,4-difluorophenoxy)-1-{3-[1-(oxan-2-yl)-1H-pyrazol-4-yl]-6-(oxetane-3-sulfonyl)-5H,6H,7H,8H-pyrido[3,4-b]pyrazin-2-yl}piperidine], the IC50 against GPR3 (setting [1]) and against GPR6 (setting [2]) was 1000 to 30000 nM each time.

For the molecule `CC(=O)N1CCc2nc(N3CCN(Cc4cn(C)cn4)CC3)c(-c3cnn(C)c3)nc2C1` [Compound 528, 1-(2-{4-[(1-methyl-4-imidazolyl)methyl]-1-piperazinyl}-3-(1-methyl-4-pyrazolyl)-5,6,7,8-tetrahydro-1,4,6-triaza-6-naphthyl)-1-ethanone], the IC50 at GPR3 (setting [3]) and against GPR6 (setting [4]) was at least 30000 nM in each case.

On to `CC(=O)N1CCc2nc(N3CCC(C(F)(F)c4ccc(F)cc4F)CC3)c(-c3cnn(C)c3)nc2C1` [Compound 698, 1-(2-(4-((2,4-difluorophenyl)difluoromethyl)piperidin-1-yl)-3-(1-methyl-1H-pyrazol-4-yl)-7,8-dihydropyrido[3,4-b]pyrazin-6(5H)-yl)ethan-1-one], for which the IC50 against GPR3 (procedure of Example 24) lay in the range of 1000 to 30000 nM; at GPR6 (procedure of Example 24), 100 to 1000 nM.

In the case of `CC(=O)N1CCc2nc(N3CCC(COc4ccccc4)C3)c(-c3cnn(C)c3)nc2C1` (stereo not drawn) [Compound 363, 1-[3-(1-methyl-1H-pyrazol-4-yl)-2-[3-(phenoxymethyl)pyrrolidin-1-yl]-5H,6H,7H,8H-pyrido[3,4-b]pyrazin-6-yl]ethan-1-one], the half-maximal inhibitory concentration (IC50) against GPR3 (procedure of Example 24) and against GPR6 (procedure of Example 24) was 1000 to 30000 nM in each case.

The record behind these values is patent US20260042755A1, “GPR6 INVERSE AGONISTS” (MapLight Therapeutics, Inc., priority 2022, published 2026).
